In this assay the test system is blood platelets. Description: Inhibition of platelet aggregation. It counts as cell-based.
Compound `O=C(O)CC(CCO)NC(=O)CNC(=O)CCCC1CCNCC1` (stereo not drawn) [(8), Pib-Gly-3-[2-(hydroxy)ethyl]β-alanine] displayed an IC50 of over 1 µM. For `O=C(O)CC(COc1ccccc1)NC(=O)CNC(=O)CCCC1CCNCC1` (stereo not drawn) [(10), Pib-Gly-3-(phenoxymethyl)β-alanine] the value was 2.1 µM. “Pib-Gly-3-(3-carboxypropyl)β-alanine [(13)]” came in with an IC50 of 4 µM. `CCCCN(CC(=O)N[C@H](CCc1ccccc1)CC(=O)O)C(=O)CCCC1CCNCC1` [(2), Pib-N-(n-butyl)Gly-3(R)-(2-phenethyl)-β-alanine] displayed an IC50 of 0.077 µM. With `O=C(O)C[C@@H](CCc1ccccc1)NC(=O)CN(Cc1ccccc1)C(=O)CCCC1CCNCC1` [(1), Pib-N-(benzyl)Gly-3(R)-(2-phenethyl)-β-alanine], half-maximal inhibition (IC50) required 0.25 µM. `O=C(O)CC(CCc1c[nH]cn1)NC(=O)CNC(=O)CCCC1CCNCC1` (stereo not drawn) [(11), Pib-Gly-3-[2-(imidazol-4-yl)ethyl]β-alanine]: it took 2.7 µM to reach half-maximal inhibition (IC50). For `O=C(O)C[C@H](CCc1c[nH]c2ccccc12)NC(=O)CNC(=O)CCCC1CCNCC1` [(6), Pib-Gly-3(S)-[2-(indol-3-yl)ethyl]β-alanine], 31 µM corresponded to half-maximal inhibition (IC50). As for `O=C(O)CC(CCCCO)NC(=O)CNC(=O)CCCC1CCNCC1` (stereo not drawn) [(9), Pib-Gly-3-[4-(hydroxy)butyl],β-alanine], the figure is 3.7 µM. As for `O=C(O)CC(CCc1cncn1Cc1ccccc1)NC(=O)CNC(=O)CCCC1CCNCC1` (stereo not drawn) [(12), Pib-Gly-3-[2-(3-benzylimidazol-4-yl)ethyl]β-alanine], the figure is 1.5 µM; as for `CCOC(=O)C[C@H](CCc1c[nH]c2ccccc12)NC(=O)CNC(=O)CCCC1CCNCC1` [(5), Pib-Gly-3(S)-[2-(indol-3-yl)ethyl]-β-alanine ethyl ester], over 1 µM; as for `O=C(O)C[C@@H](CCc1ccccc1)NC(=O)CN(CCc1ccccc1)C(=O)CCCC1CCNCC1` [(4), Pib-N-(2-phenethyl)Gly-3(R)-(2-phenethyl)-β-alanine], 0.087 µM.

On to `CC(C)N(C(=O)CCCC1CCNCC1)[C@H](CCc1ccccc1)CC(=O)O` [(3), Pib-N-(i-Propyl)-3(R)-(2-phenethyl)-β-alanine], for which the IC50 came to 0.099 µM. Compound `CC(CCc1ccccc1)(CC(=O)O)NC(=O)CNC(=O)CCCC1CCNCC1` (centres unmarked) [(7)] came in with a half-maximal inhibitory concentration (IC50) of over 300 µM. Regarding `Cc1[nH]c2ccccc2c1CCC(CC(=O)O)NC(=O)CNC(=O)CCCC1CCNCC1` (stereo not drawn) [(14), Pib-Gly-3-[2-(2-methylindol-3-yl)ethyl]β-alanine], inhibition was half-maximal at 1.1 µM (IC50).

The values above are taken from patent US5264420A, “Fibrinogen receptor antagonists” (Merck & Co., Inc., priority 1992, dated 1993).
